Source: patent publication US20260240760A1, “Injectable Compositions of Vitamers of Vitamin B12 and Uses Thereof” (Nevakar Injectables Inc., priority 2023, published 2026)

Tests used:
[1] = Cyanocobalamin concentration and appearance of polymer/DMSO compositions and stock solutions, with or without pamoic acid; type: physicochemical; conditions: pamoic acid present relative to not present
Protocol: Compositions comprising 25% polymer and cyanocobalamin either with or without pamoic acid (i.e., to form a cyanocobalamin pamoate salt) in 100% DMSO were prepared starting from 12 mg/g stock solutions, as shown in Tables 2 and 3.

[2] = within 48 hours of injection; current standard-of-care injectable compositions; cited from earlier work

| Dissolution of cyanocobalamin in compositions comprising poly(lactide-co-glycolide) and DMSO [1] | Substance | vitamin B12 excreted in urine [2] |
| --- | --- | --- |
| dissolves significantly more effectively | cyanocobalamin pamoate | – |
| – | vitamin B12 | ≤ 98% |
